Laboratory results as given in patent publication US9675591B2, “Methods for treating seizure disorders and pain” (THE REGENTS OF THE UNIVERSITY OF CALIFORNIA, priority 2013, dated 2017).

Assays:
MES-induced seizures = assay: MES seizure test, CF-1 mice, compounds given i.p. as solution; assay type: in vivo
Protocol: MES assays were performed at the Department of Neurology at the University of California with CF-1 mice. This study was approved by the University of California, Davis, Animal Use and Care Committee and conducted in accordance with the guidelines of Animal Use and Care of the National Institutes of Health and the University of California. For these assays, stock solutions of SKA-19 (5 mg/ml) were prepared in 5% CremophorEL (Sigma-Aldrich, St. Louis, Mo., USA) and 95% saline, diluted further with saline, and SKA-19 was administered i.p. in a volume of 10 ml/kg body weight. Animals were subjected to a 0.2-s, 60-Hz electrical stimulus through corneal electrodes (5 mm diameter stainless steel balls). The electroshock unit was adjusted to deliver a constant current of 50 mA. Immediately before stimulation, the corneal electrodes were wetted with saline to provide good electrical contact. Animals failing to show tonic hindlimb extension were scored as protected (Kokate et al., 1994).
The mouse maximal electroshock (MES) and 6 Hz seizure models were used. Motor toxicity was assessed using a modification of the horizontal screen test. ED50 values in the seizure models and TD50 values in the toxicity test were determined by nonlinear fitting of dose-response curves. […] Drugs solutions were injected intraperitoneally 10 min prior to administration of the electrical stimulus in a volume of 10 ml/kg body weight.

[1] = tested on: Metrazol seizure threshold; assay: Infusion of Metrazol (i.v. Met) seizure threshold test; assay type: in vivo, mice
Protocol: The i.v. Met test provides a measure of a test substance's ability to raise or lower seizure threshold. Two doses of the test compound are usually employed in this test, the MES ED50 and the TD50 determined following i.p. quantification testing in mice. SKA-19 was accordingly tested at 5 and 30 mg/kg. Randomly selected mice (n=30) were injected i.p. 2 minutes apart with either the vehicle or the two test drug doses. At the previously determined TPE, 0.5% heparinized Metrazol solution was infused at a constant rate of 0.34 ml/min into a lateral tail vein. The time in seconds from the start of the infusion to the appearance of the “first twitch” and the onset of sustained clonus is recorded. The times to each endpoint are converted to mg/kg of Metrazol for each mouse as follows: mg/kg Met=Infusion time (T)×Rate of infusion (ml/min)×mg Met/ml×1000 g/60 sec×Weight (W) of animal in g=T×0.34×5×1000=28.33×T=mg/kg of Metrazol 60×W W. The mean and S.E. for each of the 3 groups and the significance of the difference between the test groups and the control are calculated.

formalin-induced pain = assay: Formalin pain assay; assay type: in vivo, mice; conditions: 5 mg/kg
Protocol: SKA-19 was administered at a dose of 5 mg/kg to CF-1 male mice. At the previously determined time of peak anticonvulsant effect 0.5% formalin was injected sub-dermally into the plantar surface of the right hind foot. For each animal the amount of time (s) spent licking the affected hind paw in a two minute period was recorded at 5 minute intervals and continued for 45 minutes through both the acute and inflammatory phase.

mechanical allodynia = assay: Pain assay, partial ligation of the sciatic nerve (Von Frey); assay type: in vivo, rats; conditions: 5 mg/kg, 2 hour time point
Protocol: Rats were anesthetized with sodium pentobarbital, the upper thigh shaved and wiped off with ethanol and betadine. A small incision was made in the skin and the underlying muscle separated to expose the sciatic nerve. Approximately ⅓ to ½ of the nerve was tied off by passing a needle (7.0) and nylon suture through the nerve. The muscle and skin incision were afterwards closed off and the animals kept warm until they had recovered from the anesthesia. This procedure was performed on the right side (ipsilateral) while a sham surgery exposing but not ligating the nerve was performed on the left hind leg (contralateral). After 7 days of recovery animals were tested for the development of mechanical allodynia (abnormal response to a non-noxious stimulus) by putting them in a bottomless plexiglass box placed on a wire mesh (¼″) platform. After 30-60 min of acclimatization a baseline mechanical sensitivity was determined by applying a series of calibrated Von Frey fibers perpendicularly to the plantar surface of each hind paw and holding it there for about 6 s with enough force to slightly bend the fiber. […] This was repeated until a 50% threshold for withdrawal could be determined. The allodynic threshold was then redetermined after i.p. application of SKA-19 at 5 mg/kg at the time-to-peak effect determined in the acute seizure models.

Nav1.4 = Nav1.4 (Homo sapiens (Human), UniProt P35499); assay: Voltage-clamp, Nav1.4 in HEK-293 cells; assay type: cell-based
Chain of Nav1.4 (P35499 whole entry): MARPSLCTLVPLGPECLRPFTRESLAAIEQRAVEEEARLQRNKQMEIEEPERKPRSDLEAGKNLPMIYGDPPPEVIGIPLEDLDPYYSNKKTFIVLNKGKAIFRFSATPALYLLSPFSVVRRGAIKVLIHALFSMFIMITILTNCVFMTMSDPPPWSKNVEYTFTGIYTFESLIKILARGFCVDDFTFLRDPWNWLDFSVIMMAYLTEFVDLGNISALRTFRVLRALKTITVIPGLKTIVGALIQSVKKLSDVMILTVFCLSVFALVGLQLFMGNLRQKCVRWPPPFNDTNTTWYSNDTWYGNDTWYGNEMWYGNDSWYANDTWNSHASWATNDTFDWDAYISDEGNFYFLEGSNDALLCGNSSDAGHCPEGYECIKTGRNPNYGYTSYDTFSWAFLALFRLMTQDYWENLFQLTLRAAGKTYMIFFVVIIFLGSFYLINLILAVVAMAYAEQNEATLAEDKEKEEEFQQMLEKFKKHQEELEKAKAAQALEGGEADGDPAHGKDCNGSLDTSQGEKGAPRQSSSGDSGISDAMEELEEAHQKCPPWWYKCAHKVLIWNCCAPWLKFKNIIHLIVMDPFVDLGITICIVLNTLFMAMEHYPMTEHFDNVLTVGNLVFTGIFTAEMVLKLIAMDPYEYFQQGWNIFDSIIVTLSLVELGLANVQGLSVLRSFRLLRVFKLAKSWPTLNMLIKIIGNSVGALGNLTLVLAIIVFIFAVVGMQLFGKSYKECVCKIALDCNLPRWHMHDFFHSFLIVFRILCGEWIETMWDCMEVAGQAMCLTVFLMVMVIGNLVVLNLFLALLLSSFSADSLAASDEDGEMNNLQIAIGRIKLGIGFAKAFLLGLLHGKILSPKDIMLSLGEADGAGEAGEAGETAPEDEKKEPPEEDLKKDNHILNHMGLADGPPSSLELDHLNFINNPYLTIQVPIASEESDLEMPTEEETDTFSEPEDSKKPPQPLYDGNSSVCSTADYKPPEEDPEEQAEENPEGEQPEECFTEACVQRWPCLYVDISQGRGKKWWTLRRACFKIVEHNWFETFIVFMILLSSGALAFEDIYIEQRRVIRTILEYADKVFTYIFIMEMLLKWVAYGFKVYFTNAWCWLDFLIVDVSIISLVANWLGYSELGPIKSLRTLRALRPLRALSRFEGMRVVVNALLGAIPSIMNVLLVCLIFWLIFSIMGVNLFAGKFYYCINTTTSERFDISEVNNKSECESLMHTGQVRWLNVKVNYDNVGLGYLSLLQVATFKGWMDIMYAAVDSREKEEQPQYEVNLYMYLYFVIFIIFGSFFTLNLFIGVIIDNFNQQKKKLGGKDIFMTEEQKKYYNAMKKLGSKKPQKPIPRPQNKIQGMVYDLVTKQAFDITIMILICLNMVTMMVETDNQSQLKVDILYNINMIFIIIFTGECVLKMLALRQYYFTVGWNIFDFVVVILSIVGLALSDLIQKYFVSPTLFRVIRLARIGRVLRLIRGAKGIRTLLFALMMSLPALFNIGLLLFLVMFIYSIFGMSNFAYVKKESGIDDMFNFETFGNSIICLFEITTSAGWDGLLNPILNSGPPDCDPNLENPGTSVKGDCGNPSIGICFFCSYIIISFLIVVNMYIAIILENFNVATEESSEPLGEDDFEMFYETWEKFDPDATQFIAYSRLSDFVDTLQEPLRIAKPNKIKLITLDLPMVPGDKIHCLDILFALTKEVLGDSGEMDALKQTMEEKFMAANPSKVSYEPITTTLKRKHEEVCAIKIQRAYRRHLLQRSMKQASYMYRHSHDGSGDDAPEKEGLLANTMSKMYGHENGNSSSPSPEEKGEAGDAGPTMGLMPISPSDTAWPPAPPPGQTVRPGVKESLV
Protocol: All experiments were conducted at room temperature (22-24° C.) with an EPC-10 amplifier and Pulse software (HEKA, Lambrecht/Pfalz, Germany) in the whole-cell mode of the patch-clamp technique. Human embryonic kidney (HEK)-293 cell lines stably expressing hNav1.1, hNav1.5, hNav1.7 channels (generously provided by Dr. Christopher Lossin, University of California Davis), hNav1.4 (Frank Lehmann-Horn, University of Ulm), or hKv2.1 channels (James Trimmer, University of California Davis) were bathed in extracellular solution containing (in mM): 160 NaCl; 4.5 KCl; 1 MgCl2; 2 CaCl2; 10 HEPES [pH was adjusted to 7.4 using NaOH (310 mOsm)]. Pipettes were filled with intracellular solution containing (in mM): 145 KF; 2 MgCl2; 10 ethylene glycol tetraacetic acid; 10 HEPES (pH adjusted to 7.2 with KOH; 300 mOsm). Neuroblastoma N1E-115 cells (ATCC, Manassa, Va., USA) expressing Nav1.2 were patched with a CsF internal solution consisting of (in mM): 10 NaF; 110 CsF; 20 CsCl; 2 ethylene glycol tetraacetic acid; 10 HEPES (CsOH to pH 7.35; 300 mOsm). All pipette tip resistances were 2-4 MΩ. Series resistances of 3-10 MΩ were compensated 40-80%. All cells were voltage-clamped to a holding potential of −90 mV unless otherwise specified. The sampling frequency was 5 kHz. Na^+ currents were elicited by 30-ms pulse to 0 mV from −90 mV applied every 10 s. […]

Compound: Nc1nc2ccc(SC(F)(F)F)cc2s1 [SKA-19, 6-((trifluoromethyl)thio)benzo[d]thiazol-2-amine]
- duration of full protection (MES-induced seizures; 10 mg/kg i.p. as solution): 2.5 h
- duration of significant seizure protection (MES-induced seizures; 5 and 6 mg/kg i.p. as solution): at least 90 min
- duration of protective activity (MES-induced seizures; MES test, 10 mg/kg i.p. as solution): up to 4 h
- ED50 (MES-induced seizures; Mus musculus, ip, 10 min, i.p. as solution, 10 min time point, read-out: ED50, seizure protection in the MES test): 4.93 mg/kg
- onset of protection from seizures after application (MES-induced seizures; i.p. as solution): ≤ 5 min
- protective index PI (TD50/ED50) (MES-induced seizures; i.p. as solution, 10 min time point): 3.2
- time or metrazole dose to the first twitch or clonus ([1]; 5 mg/kg i.p.): did not change
- proconvulsant action ([1]; 5 and 30 mg/kg i.p.): not proconvulsant
- Metrazole dose to first clonus ([1]; SKA-19 30 mg/kg i.p.): 37.2 ± 1.25 mg/kg
- Metrazole dose to first twitch ([1]; SKA-19 30 mg/kg i.p.): 31.6 ± 1.0 mg/kg
- reduction of paw licking (area under curve), Phase II (formalin-induced pain; 2 hours prior to formalin): 31.3%
- reduction of total paw licking (area under curve), Phase I (formalin-induced pain; 2 hours prior to formalin): 54.5%
- time spent licking the affected hindpaw (formalin-induced pain; 2 h prior to formalin): significantly decreased
- withdrawal threshold (Von Frey) (mechanical allodynia): significantly increased
- block of Nav1.4 (Nav1.4): low micromolar range
- IC50 (Nav1.4; read-out: EC50 or IC50, Nav1.4): 4.5 ± 2.7 µM
